Patent US10350210B2, “EGFR and ALK dual inhibitor” (PRECEDO PHARMACEUTICALS CO., LTD, priority 2015, dated 2019)

How the values were obtained:
Type in all cases: cell-based
NCI-H3122 = test: Growth of cancer cells (Cell Titer-Glo viability), NCI-H3122; details: Homo sapiens; NCI-H3122 (expressing ALK gene), 72 hrs; read-out: GI50
BaF3-TEL-INSR = test: Cell growth (Cell Titer-Glo viability), BaF3-TEL-INSR; details: Mus musculus; BaF3-TEL-INSR (stably expressing INSR protein), 72 hrs
Source text: (§1) By testing the effect of the novel kinase inhibitors on the proliferation of cancer cells, the selectivity of the compounds of the present disclosure in inhibiting the proliferation of cancer cells was further assessed. In this example, human non-small cell lung cancer cell NCI-H1975 (expressing EGFR L858R/T790M double mutant gene), human skin squamous carcinoma cell A431 (expressing wild-type EGFR gene), non-small cell lung cancer NCI-H3255 (expressing EGFR L858R mutant gene), non-small cell lung cancer cell NCI-H3122 (expressing ALK gene), human non-small cell lung cancer cell A549 (expressing wild-type EGFR gene), human non-small cell lung cancer cell NCI-H2122 (expressing wild-type EGFR gene), human non-small cell lung cancer cell NCI-H460 (expressing wild-type EGFR gene), human non-small cell lung cancer cell PC-9 (expressing EGFR delE746_A750 mutant gene), Chinese hamster ovary cell CHO (Cricetulus griseus, hamster, Chinese, ovary), Chinese hamster lung cell CHL, human non-small cell lung cancer cell HCC827 (expressing mutant EGFR del19 gene), human lung adenocarcinoma cell HCC4006 (expressing mutant EGFR del19 gene), human non-small cell lung cancer cell NCI-H2228 (expressing wild-type ALK gene), and mouse primary B cell BaF3 were used, and the above cells were all purchased from ATCC (US). In addition, mouse BaF3-TEL-ALK (stably expressing ALK kinase), mouse BaF3-ALK-F1174L (stably expressing mutant ALK F1174L kinase), mouse BaF3-NPM-ALK (stably expressing ALK kinase), mouse BaF3-TEL-EGFR (stably expressing EGFR kinase), mouse BaF3-TEL-EGFR-T790M (stably expressing EGFR T790M mutant kinase), mouse BaF3-FL-EGFR-Del19 (stably expressing EGFR delE746_A750 mutant kinase), mouse BaF3-TEL-EGFR-L858R (stably expressing EGFR L858R mutant kinase), mouse BaF3-FL-EGFR-T790M-L858R (stably expressing EGFR T790M/L858R mutant kinase), mouse BaF3-TEL-INSR (stably expressing INSR protein), mouse BaF3-TEL-IGF1R (stably expressing IGF1R Protein), mouse BaF3-EML4-ALK (stably expressing EML4-ALK Protein), mouse BaF3-TEL-JAK3 (stably expressing JAK3 kinase protein), mouse BaF3-TEL-CSF1R (stably expressing CSF1R protein), and mouse BaF3-TEL-ALK-F1196M (stably expressing ALK F1196M mutant kinase) were also used in this example. The above cell lines were all established by our laboratory via the following process: kinase proteins or protein domain sequences of human ALK, ALK F1174L, EGFR, EGFR T790M, EGFR delE746_A750, EGFR L858, EGFR T790M/L858R, INSR, IGF1R, EML4-ALK, JAK3, CSF1R, ALK F1196M were amplified respectively by PCR, and were respectively inserted into MSCV-Puro vector (Clontech) with N-terminal TEL fragments and/or NPM fragments and/or TPR fragments; the resultants were stably transfected into mouse BaF3 cells by the means of retrovirus, and the IL-3 growth factors were removed, and eventually the ALK, ALK F1174L, EGFR, EGFR T790M, EGFR delE746_A750, EGFR L858, EGFR T790M/L858R, INSR, IGF1R, EML4-ALK, JAK3, CSF1R, ALK F1196M-transferred protein dependent cell lines were obtained.
(§2) The number of viable cells was determined quantitatively by a microplate reader using Cell Titer-Glo® (Promega, US) chemiluminescence cell viability assay kit.

BaF3-NPM-ALK = test: Cell growth (Cell Titer-Glo viability), BaF3-NPM-ALK; details: Mus musculus; BaF3-NPM-ALK (stably expressing ALK kinase), 72 hrs
NCI-H1975 = test: Growth of cancer cells (Cell Titer-Glo viability), NCI-H1975; details: Homo sapiens; NCI-H1975 (EGFR L858R/T790M double mutant), 72 hrs
How it was run: (§3)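 Cells are counted as viable by CellTiter-Glo chemiluminescence. Murine BaF3 lines depend on a stably transfected TEL-fused kinase after IL-3 withdrawal, and the NSCLC lines express mutant EGFR.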

BaF3 = test: Cell growth (Cell Titer-Glo viability), BaF3; details: BaF3 mouse primary B cell, 72 hrs
PC-9 = test: Growth of cancer cells (Cell Titer-Glo viability), PC-9; details: Homo sapiens; PC-9 (EGFR delE746_A750 mutant), 72 hrs
How it was run: as §3

BaF3-TEL-ALK-F1196M = test: Cell growth (Cell Titer-Glo viability), BaF3-TEL-ALK-F1196M; details: Mus musculus; BaF3-TEL-ALK-F1196M (ALK F1196M mutant kinase), 72 hrs
Source text: (§4) By testing the effect of the novel kinase inhibitors on the proliferation of cancer cells, the selectivity of the compounds of the present disclosure in inhibiting the proliferation of cancer cells was further assessed. In this example, human non-small cell lung cancer cell NCI-H1975 (expressing EGFR L858R/T790M double mutant gene), human skin squamous carcinoma cell A431 (expressing wild-type EGFR gene), non-small cell lung cancer NCI-H3255 (expressing EGFR L858R mutant gene), non-small cell lung cancer cell NCI-H3122 (expressing ALK gene), human non-small cell lung cancer cell A549 (expressing wild-type EGFR gene), human non-small cell lung cancer cell NCI-H2122 (expressing wild-type EGFR gene), human non-small cell lung cancer cell NCI-H460 (expressing wild-type EGFR gene), human non-small cell lung cancer cell PC-9 (expressing EGFR delE746_A750 mutant gene), Chinese hamster ovary cell CHO (Cricetulus griseus, hamster, Chinese, ovary), Chinese hamster lung cell CHL, human non-small cell lung cancer cell HCC827 (expressing mutant EGFR del19 gene), human lung adenocarcinoma cell HCC4006 (expressing mutant EGFR del19 gene), human non-small cell lung cancer cell NCI-H2228 (expressing wild-type ALK gene), and mouse primary B cell BaF3 were used, and the above cells were all purchased from ATCC (US). […]
as §2

BaF3-TEL-ALK = test: Cell growth (Cell Titer-Glo viability), BaF3-TEL-ALK; details: Mus musculus; BaF3-TEL-ALK (stably expressing ALK kinase), 72 hrs
How it was run: as §3

HCC827 = test: Growth of cancer cells (Cell Titer-Glo viability), HCC827; details: Homo sapiens; HCC827 (mutant EGFR del19), 72 hrs
How it was run: as §3

BaF3-TEL-JAK3 = test: Cell growth (Cell Titer-Glo viability), BaF3-TEL-JAK3; details: Mus musculus; BaF3-TEL-JAK3 (stably expressing JAK3 kinase protein), 72 hrs
Source text: as §1, §2

BaF3-EML4-ALK = test: Cell growth (Cell Titer-Glo viability), BaF3-EML4-ALK; details: Mus musculus, Ba/F3 EML4-ALK; BaF3-EML4-ALK (stably expressing EML4-ALK protein), 72 hrs
Source text: as §1, §2

BaF3-TEL-CSF1R = test: Cell growth (Cell Titer-Glo viability), BaF3-TEL-CSF1R; details: Mus musculus; BaF3-TEL-CSF1R (stably expressing CSF1R protein), 72 hrs
Source text: as §4, with “(US). In addition, mouse BaF3-TEL-ALK (stably expressing ALK kinase), mouse BaF3-ALK-F1174L (stably expressing mutant ALK F1174L kinase), mouse BaF3-NPM-ALK (stably expressing ALK kinase), mouse BaF3-TEL-EGFR (stably expressing EGFR kinase), mouse BaF3-TEL-EGFR-T790M (stably expressing EGFR T790M mutant kinase), mouse BaF3-FL-EGFR-Del19 (stably expressing EGFR delE746_A750 mutant kinase), mouse BaF3-TEL-EGFR-L858R (stably expressing EGFR L858R mutant kinase), mouse BaF3-FL-EGFR-T790M-L858R (stably expressing EGFR T790M/L858R mutant kinase), mouse BaF3-TEL-INSR (stably expressing INSR protein), mouse BaF3-TEL-IGF1R (stably expressing IGF1R Protein), mouse BaF3-EML4-ALK (stably expressing EML4-ALK Protein), mouse BaF3-TEL-JAK3 (stably expressing JAK3 kinase protein), mouse BaF3-TEL-CSF1R (stably expressing CSF1R protein), and mouse BaF3-TEL-ALK-F1196M (stably expressing ALK F1196M mutant kinase) were also used in this example.” for “(US).”
as §2

GI50 (NCI-H3122) | GI50 (BaF3-TEL-INSR) | GI50 (BaF3-NPM-ALK) | GI50 (NCI-H1975) | GI50 (BaF3) | GI50 (PC-9) | GI50 (BaF3-TEL-ALK-F1196M) | GI50 (BaF3-TEL-ALK) | GI50 (HCC827) | GI50 (BaF3-TEL-JAK3) | GI50 (BaF3-EML4-ALK) | GI50 (BaF3-TEL-CSF1R) | Structure (SMILES)
2 nM | < 0.3 nM | < 0.3 nM | < 0.3 nM | 380 nM | 58 nM | < 0.3 nM | 1 nM | – | – | – | – | C=CC(=O)Nc1cc(Nc2ncc(Br)c(Nc3ccccc3S(=O)(=O)C(C)C)n2)c(OC)cc1N1CCN(CC)CC1 [Compound 83, N-(5-(5-bromo-4-(2-(isopropylsulfonyl)phenylamino)pyrimidin-2-ylamino)-2-(4-ethylpiperazin-1-yl)-4-methoxyphenyl)acrylamide]
18 nM | 49 nM | – | 120 nM | 1700 nM | 120 nM | – | – | 210 nM | 290 nM | 71 nM | 370 nM | C=CC(=O)Nc1cc(Nc2ncc(Cl)c(Nc3ccccc3C(=O)NC)n2)c(OC)cc1N1CCN(C2CCN(C)CC2)CC1 [Compound 72, 2-(2-(5-acrylamido-2-methoxy-4-(4-(1-methylpiperidin-4-yl)piperazin-1-yl)phenylamino)-5-chloropyrimidin-4-ylamino)-N-methylbenzamide]
4.3 nM | 8.4 nM | – | 12 nM | 940 nM | 2 nM | – | – | 16 nM | 9 nM | 12 nM | 150 nM | C=CC(=O)Nc1cc(Nc2ncc(Cl)c(Nc3ccccc3C(=O)NC)n2)c(OC)cc1N(C)CCN(C)C [Compound 71, 2-(2-(5-acrylamido-4-((2-(dimethylamino)ethyl)(methyl)amino)-2-methoxyphenylamino)-5-chloropyrimidin-4-ylamino)-N-methylbenzamide]
